Series [1] addresses Multidrug resistance-associated protein 1 (Homo sapiens, UniProt P33527). In words: TP_TRANSPORTER: transepithelial transport (basal to apical) in MRP1-expressing MDCKII cells. The format is functional, cell-based. The settings on record: dog, mdck-ii.
Series [2] addresses ATP-binding cassette sub-family C member 2 (Homo sapiens, UniProt Q92887). The series is described as follows: TP_TRANSPORTER: transepithelial transport (basal to apical) in MRP2-expressing MDCKII cells. The format is functional, cell-based. The settings on record: dog, mdck-ii.

Multidrug resistance-associated protein 1, sequence (P33527 whole entry): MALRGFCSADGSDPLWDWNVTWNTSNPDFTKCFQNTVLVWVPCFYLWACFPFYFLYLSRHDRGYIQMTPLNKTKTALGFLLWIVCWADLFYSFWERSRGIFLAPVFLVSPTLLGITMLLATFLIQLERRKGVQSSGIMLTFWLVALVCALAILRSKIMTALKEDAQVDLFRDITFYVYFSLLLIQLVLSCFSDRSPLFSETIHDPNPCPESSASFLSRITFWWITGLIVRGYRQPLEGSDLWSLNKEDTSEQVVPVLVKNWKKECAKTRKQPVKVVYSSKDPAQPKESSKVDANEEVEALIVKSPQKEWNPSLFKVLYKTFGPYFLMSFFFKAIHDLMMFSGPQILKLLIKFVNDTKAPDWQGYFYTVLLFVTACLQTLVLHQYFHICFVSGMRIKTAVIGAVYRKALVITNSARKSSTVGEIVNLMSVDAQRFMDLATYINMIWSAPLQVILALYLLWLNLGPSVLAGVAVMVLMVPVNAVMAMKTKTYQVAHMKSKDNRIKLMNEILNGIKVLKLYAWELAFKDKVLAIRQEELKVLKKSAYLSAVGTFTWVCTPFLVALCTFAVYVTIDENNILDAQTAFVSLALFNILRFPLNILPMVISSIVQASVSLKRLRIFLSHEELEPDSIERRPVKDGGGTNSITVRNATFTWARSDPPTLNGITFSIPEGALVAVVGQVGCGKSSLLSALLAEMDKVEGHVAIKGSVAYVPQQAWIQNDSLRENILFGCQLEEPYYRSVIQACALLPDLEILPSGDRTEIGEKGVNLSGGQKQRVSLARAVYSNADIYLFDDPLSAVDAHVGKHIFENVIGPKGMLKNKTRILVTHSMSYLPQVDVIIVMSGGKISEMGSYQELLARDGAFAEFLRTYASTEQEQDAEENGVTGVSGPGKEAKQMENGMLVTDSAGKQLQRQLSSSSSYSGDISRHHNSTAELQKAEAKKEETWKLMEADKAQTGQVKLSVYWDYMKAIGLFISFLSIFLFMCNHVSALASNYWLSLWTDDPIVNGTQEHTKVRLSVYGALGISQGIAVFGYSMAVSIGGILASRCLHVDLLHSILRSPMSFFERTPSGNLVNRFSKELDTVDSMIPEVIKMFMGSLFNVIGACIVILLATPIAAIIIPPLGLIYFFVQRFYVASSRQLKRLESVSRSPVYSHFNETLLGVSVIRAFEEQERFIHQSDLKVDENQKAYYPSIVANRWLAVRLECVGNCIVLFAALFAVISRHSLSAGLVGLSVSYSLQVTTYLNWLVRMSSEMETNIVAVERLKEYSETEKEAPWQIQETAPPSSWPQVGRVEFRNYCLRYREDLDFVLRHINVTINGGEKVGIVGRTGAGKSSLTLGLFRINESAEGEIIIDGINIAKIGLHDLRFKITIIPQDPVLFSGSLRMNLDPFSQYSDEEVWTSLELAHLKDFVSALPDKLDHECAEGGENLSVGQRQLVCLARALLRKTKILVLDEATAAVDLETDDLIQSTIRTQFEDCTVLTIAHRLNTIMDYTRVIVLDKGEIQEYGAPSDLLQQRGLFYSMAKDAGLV
ATP-binding cassette sub-family C member 2, sequence (Q92887 whole entry): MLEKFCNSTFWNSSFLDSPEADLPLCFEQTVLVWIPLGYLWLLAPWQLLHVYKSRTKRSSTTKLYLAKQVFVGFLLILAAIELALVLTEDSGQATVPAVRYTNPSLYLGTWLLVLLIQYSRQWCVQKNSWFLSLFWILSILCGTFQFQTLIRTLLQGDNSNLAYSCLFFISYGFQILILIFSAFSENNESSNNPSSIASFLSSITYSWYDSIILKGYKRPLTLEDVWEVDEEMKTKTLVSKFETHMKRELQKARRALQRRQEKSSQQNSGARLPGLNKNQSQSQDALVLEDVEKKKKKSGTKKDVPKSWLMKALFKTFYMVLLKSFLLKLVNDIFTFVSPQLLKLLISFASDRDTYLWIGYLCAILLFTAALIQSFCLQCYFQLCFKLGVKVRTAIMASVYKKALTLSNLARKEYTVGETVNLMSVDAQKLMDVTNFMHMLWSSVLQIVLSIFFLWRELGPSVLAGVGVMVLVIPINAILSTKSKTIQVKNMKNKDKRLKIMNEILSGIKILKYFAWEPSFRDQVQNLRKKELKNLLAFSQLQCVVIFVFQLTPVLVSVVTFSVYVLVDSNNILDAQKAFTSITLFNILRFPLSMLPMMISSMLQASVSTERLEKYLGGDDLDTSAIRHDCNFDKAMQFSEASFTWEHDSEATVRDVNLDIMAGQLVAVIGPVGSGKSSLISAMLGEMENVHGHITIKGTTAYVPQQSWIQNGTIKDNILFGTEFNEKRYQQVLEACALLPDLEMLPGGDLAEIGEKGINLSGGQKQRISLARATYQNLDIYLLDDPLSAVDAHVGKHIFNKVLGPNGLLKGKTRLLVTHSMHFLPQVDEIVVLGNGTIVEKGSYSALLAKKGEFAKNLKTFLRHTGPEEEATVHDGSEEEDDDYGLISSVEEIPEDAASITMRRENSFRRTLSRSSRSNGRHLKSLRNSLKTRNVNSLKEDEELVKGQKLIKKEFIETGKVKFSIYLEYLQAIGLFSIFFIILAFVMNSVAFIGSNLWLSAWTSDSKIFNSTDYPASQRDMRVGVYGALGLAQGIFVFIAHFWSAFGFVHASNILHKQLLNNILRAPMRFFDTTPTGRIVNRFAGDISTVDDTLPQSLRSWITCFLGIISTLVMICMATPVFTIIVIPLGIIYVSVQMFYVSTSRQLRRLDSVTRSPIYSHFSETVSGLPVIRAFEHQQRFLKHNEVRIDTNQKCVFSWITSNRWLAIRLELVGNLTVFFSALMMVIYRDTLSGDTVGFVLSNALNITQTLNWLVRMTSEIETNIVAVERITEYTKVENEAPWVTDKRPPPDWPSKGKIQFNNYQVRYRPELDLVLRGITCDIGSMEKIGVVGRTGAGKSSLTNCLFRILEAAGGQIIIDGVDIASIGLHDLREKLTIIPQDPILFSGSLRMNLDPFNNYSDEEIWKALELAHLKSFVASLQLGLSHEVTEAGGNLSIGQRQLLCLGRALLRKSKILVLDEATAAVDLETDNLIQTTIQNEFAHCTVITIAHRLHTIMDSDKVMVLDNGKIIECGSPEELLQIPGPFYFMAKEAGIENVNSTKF

In the case of `CC(C)(C)NC(=O)[C@@H]1C[C@@H]2CCCC[C@@H]2CN1C[C@@H](O)[C@H](Cc1ccccc1)NC(=O)[C@H](CC(N)=O)NC(=O)c1ccc2ccccc2n1` [SAQUINAVIR], the Activity result in series [1] and in series [2] was “substrate [+]” each time.

(Values after ChEMBL document CHEMBL2073769, “Direct evidence that saquinavir is transported by multidrug resistance-associated protein (MRP1) and canalicular multispecific organic anion transporter (MRP2)” (Antimicrob Agents Chemother, 2002).)
